Source: PMC12952243, “Dual targeting of the mitochondrial Lon peptidase 1 and the chymotrypsin-like proteasome activity as a potential therapeutic strategy in malignant astrocytoma models” (Pharmacological research, 2024)

Molecular target: T1, Mitochondrial Lon Peptidase 1 (LonP1) (Homo sapiens, UniProt P36776)
T1 construct: LonP1 immunopurified from mitochondria of HOG cells overexpressing LonP1
T1 sequence (P36776 68-959): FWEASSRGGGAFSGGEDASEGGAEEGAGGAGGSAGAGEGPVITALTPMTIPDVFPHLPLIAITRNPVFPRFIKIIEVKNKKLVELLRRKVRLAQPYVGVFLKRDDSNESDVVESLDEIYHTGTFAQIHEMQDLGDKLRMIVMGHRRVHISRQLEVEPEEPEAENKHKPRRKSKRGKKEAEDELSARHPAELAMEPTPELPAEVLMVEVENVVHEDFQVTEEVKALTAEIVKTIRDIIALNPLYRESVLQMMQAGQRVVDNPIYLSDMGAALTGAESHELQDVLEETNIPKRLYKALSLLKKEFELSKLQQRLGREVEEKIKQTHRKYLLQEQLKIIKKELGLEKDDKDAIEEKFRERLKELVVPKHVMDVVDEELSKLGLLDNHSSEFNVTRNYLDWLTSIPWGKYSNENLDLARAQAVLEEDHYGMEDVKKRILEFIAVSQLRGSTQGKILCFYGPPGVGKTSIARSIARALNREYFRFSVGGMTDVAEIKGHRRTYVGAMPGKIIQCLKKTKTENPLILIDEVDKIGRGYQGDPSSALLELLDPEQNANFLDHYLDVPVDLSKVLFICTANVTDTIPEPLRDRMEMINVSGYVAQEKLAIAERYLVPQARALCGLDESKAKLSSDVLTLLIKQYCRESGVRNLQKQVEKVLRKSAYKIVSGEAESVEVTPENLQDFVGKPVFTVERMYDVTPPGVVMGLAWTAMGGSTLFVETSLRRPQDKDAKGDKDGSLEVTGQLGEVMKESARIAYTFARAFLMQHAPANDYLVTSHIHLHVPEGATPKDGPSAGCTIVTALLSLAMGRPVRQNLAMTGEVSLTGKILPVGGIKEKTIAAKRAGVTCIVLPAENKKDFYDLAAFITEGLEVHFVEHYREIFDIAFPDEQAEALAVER
Experiment: FITC-casein fluorescent protease assay with immunopurified LonP1
Type: biochemical

IC50 [µM]	Compound
50	Cc1cc(NC(C#N)C2=Cc3cc(Cl)cc(Cl)c3OC2c2ccccc2)ccc1B1OC(C)(C)C(C)(C)O1 (stereo not shown) [BT395]
124	CC1(C)OB(c2cccc(N(Cc3ccccc3)C(=O)CCl)c2)OC1(C)C [BT399]
34.5	Cc1cc(NC(C#N)C2=Cc3cc(Cl)cc(Cl)c3OC2c2ccccc2)ccc1[B-](F)(F)F (stereo not shown) [BT397]
31.2	O=C(Nc1ccc(O)cc1)c1cc2cc(Cl)ccc2oc1=O [BT317]
